Results taken from ChEMBL document CHEMBL2375306, “Antimicrobial peptides containing unnatural amino acid exhibit potent bactericidal activity against ESKAPE pathogens” (Bioorg Med Chem, 2013).
Values after ≈ are worked out from the molar mass of the structure shown. Square brackets hold non-standard residues; d marks the D form. Peptide text beside a SMILES is read from it. ξ: configuration not given here. Phe(4-NO2) = N[C@@H](Cc1ccc([N+](=O)[O-])cc1)C(=O)O; Pro(3ξ,4ξ-(CH2)4) = O=C(O)[C@H]1NCC2CCCCC21; Phe(4-Cl) = N[C@@H](Cc1ccc(Cl)cc1)C(=O)O; Phe(4-F) = N[C@@H](Cc1ccc(F)cc1)C(=O)O; Tic = O=C(O)[C@@H]1Cc2ccccc2CN1

Experiments:
Assay type in all cases: functional
Staphylococcus aureus = experiment: Antibacterial activity against methicillin-sensitive Staphylococcus aureus UAMS-1 after 24 hrs by broth microdilution method; conditions: UAMS-1, 24 h
Klebsiella aerogenes = experiment: Antibacterial activity against Enterobacter aerogenes after 24 hrs by broth microdilution method
Klebsiella pneumoniae = experiment: Antibacterial activity against Klebsiella pneumoniae BAMS clinical isolate 07-18 after 24 hrs by broth microdilution method; conditions: BAMS clinical isolate 07-18, 24 h
Acinetobacter baumannii = experiment: Antibacterial activity against Acinetobacter baumannii WRAIR clinical isolate 13 after 24 hrs by broth microdilution method; conditions: WRAIR clinical isolate 13, 24 h
Pseudomonas aeruginosa = experiment: Antibacterial activity against Pseudomonas aeruginosa PAO1 after 24 hrs by broth microdilution method; conditions: PAO1, 24 h
Enterococcus faecium = experiment: Antibacterial activity against Enterococcus faecium MMC4 after 24 hrs by broth microdilution method; conditions: MMC4, 24 h

MIC (Staphylococcus aureus)	MIC (Klebsiella aerogenes)	MIC (Klebsiella pneumoniae)	MIC (Acinetobacter baumannii)	MIC (Pseudomonas aeruginosa)	MIC (Enterococcus faecium)	Structure (SMILES)	MBC (Staphylococcus aureus)	MBC (Klebsiella aerogenes)	MBC (Klebsiella pneumoniae)	MBC (Acinetobacter baumannii)	MBC (Pseudomonas aeruginosa)	MBC (Enterococcus faecium)
25 µg/mL (≈ 9.96 µM)	> 100 µg/mL	50 µg/mL (≈ 19.9 µM)	6.25 µg/mL (≈ 2.49 µM)	50 µg/mL (≈ 19.9 µM)	6.25 µg/mL (≈ 2.49 µM)	CC(=O)NCC(=O)N[C@@H](Cc1ccc(Cl)cc1)C(=O)N1Cc2ccccc2C[C@H]1C(=O)N1CC2CCCCC2[C@H]1C(=O)NCC(=O)N[C@@H](CCCCN)C(=O)N1Cc2ccccc2C[C@H]1C(=O)N1CC2CCCCC2[C@H]1C(=O)NCC(=O)N[C@@H](Cc1ccc(Cl)cc1)C(=O)N1Cc2ccccc2C[C@H]1C(=O)N1CC2CCCCC2[C@H]1C(=O)NCC(=O)N[C@@H](CCCCN)C(=O)N1Cc2ccccc2C[C@H]1C(=O)N[C@@H](CCCCN)C(=O)N[C@@H](CCCCN)C(=O)N[C@@H](CCCCN)C(=O)N[C@@H](CCCCN)C(N)=O (stereo partly drawn) (Ac-G[Phe(4-Cl)][Tic][Pro(3ξ,4ξ-(CH2)4)]GK[Tic][Pro(3ξ,4ξ-(CH2)4)]G[Phe(4-Cl)][Tic][Pro(3ξ,4ξ-(CH2)4)]GK[Tic]KKKK-NH2)	50 µg/mL (≈ 19.9 µM)	> 100 µg/mL	100 µg/mL (≈ 39.8 µM)	25 µg/mL (≈ 9.96 µM)	50 µg/mL (≈ 19.9 µM)	25 µg/mL (≈ 9.96 µM)
100 µg/mL (≈ 40.4 µM)	> 100 µg/mL	100 µg/mL (≈ 40.4 µM)	12.5 µg/mL (≈ 5.05 µM)	> 100 µg/mL	25 µg/mL (≈ 10.1 µM)	CC(=O)NCC(=O)N[C@@H](Cc1ccc(F)cc1)C(=O)N1Cc2ccccc2C[C@H]1C(=O)N1CC2CCCCC2[C@H]1C(=O)NCC(=O)N[C@@H](CCCCN)C(=O)N1Cc2ccccc2C[C@H]1C(=O)N1CC2CCCCC2[C@H]1C(=O)NCC(=O)N[C@@H](Cc1ccc(F)cc1)C(=O)N1Cc2ccccc2C[C@H]1C(=O)N1CC2CCCCC2[C@H]1C(=O)NCC(=O)N[C@@H](CCCCN)C(=O)N1Cc2ccccc2C[C@H]1C(=O)N[C@@H](CCCCN)C(=O)N[C@@H](CCCCN)C(=O)N[C@@H](CCCCN)C(=O)N[C@@H](CCCCN)C(N)=O (stereo partly drawn) (Ac-G[Phe(4-F)][Tic][Pro(3ξ,4ξ-(CH2)4)]GK[Tic][Pro(3ξ,4ξ-(CH2)4)]G[Phe(4-F)][Tic][Pro(3ξ,4ξ-(CH2)4)]GK[Tic]KKKK-NH2)	100 µg/mL (≈ 40.4 µM)	> 100 µg/mL	100 µg/mL (≈ 40.4 µM)	25 µg/mL (≈ 10.1 µM)	> 100 µg/mL	50 µg/mL (≈ 20.2 µM)
100 µg/mL (≈ 39.5 µM)	100 µg/mL (≈ 39.5 µM)	50 µg/mL (≈ 19.8 µM)	12.5 µg/mL (≈ 4.94 µM)	50 µg/mL (≈ 19.8 µM)	25 µg/mL (≈ 9.88 µM)	CC(=O)NCC(=O)N[C@@H](Cc1ccc([N+](=O)[O-])cc1)C(=O)N1Cc2ccccc2C[C@H]1C(=O)N1CC2CCCCC2[C@H]1C(=O)NCC(=O)N[C@@H](CCCCN)C(=O)N1Cc2ccccc2C[C@H]1C(=O)N1CC2CCCCC2[C@H]1C(=O)NCC(=O)N[C@@H](Cc1ccc([N+](=O)[O-])cc1)C(=O)N1Cc2ccccc2C[C@H]1C(=O)N1CC2CCCCC2[C@H]1C(=O)NCC(=O)N[C@@H](CCCCN)C(=O)N1Cc2ccccc2C[C@H]1C(=O)N[C@@H](CCCCN)C(=O)N[C@@H](CCCCN)C(=O)N[C@@H](CCCCN)C(=O)N[C@@H](CCCCN)C(N)=O (stereo partly drawn) (Ac-G[Phe(4-NO2)][Tic][Pro(3ξ,4ξ-(CH2)4)]GK[Tic][Pro(3ξ,4ξ-(CH2)4)]G[Phe(4-NO2)][Tic][Pro(3ξ,4ξ-(CH2)4)]GK[Tic]KKKK-NH2)	> 100 µg/mL	100 µg/mL (≈ 39.5 µM)	50 µg/mL (≈ 19.8 µM)	12.5 µg/mL (≈ 4.94 µM)	100 µg/mL (≈ 39.5 µM)	50 µg/mL (≈ 19.8 µM)
> 100 µg/mL	> 100 µg/mL	100 µg/mL (≈ 41 µM)	12.5 µg/mL (≈ 5.12 µM)	> 100 µg/mL	25 µg/mL (≈ 10.2 µM)	CC(=O)N[C@@H](CCCCN)C(=O)N[C@@H](CCCCN)C(=O)N[C@@H](CCCCN)C(=O)N[C@@H](CCCCN)C(=O)NCC(=O)N[C@@H](Cc1ccccc1)C(=O)N1Cc2ccccc2C[C@H]1C(=O)N1CC2CCCCC2[C@H]1C(=O)NCC(=O)N[C@@H](CCCCN)C(=O)N1Cc2ccccc2C[C@H]1C(=O)N1CC2CCCCC2[C@H]1C(=O)NCC(=O)N[C@@H](Cc1ccccc1)C(=O)N1Cc2ccccc2C[C@H]1C(=O)N1CC2CCCCC2[C@H]1C(=O)NCC(=O)N[C@@H](CCCCN)C(=O)N1Cc2ccccc2C[C@H]1C(N)=O (stereo partly drawn) (Ac-KKKKGF[Tic][Pro(3ξ,4ξ-(CH2)4)]GK[Tic][Pro(3ξ,4ξ-(CH2)4)]GF[Tic][Pro(3ξ,4ξ-(CH2)4)]GK[Tic]-NH2)	> 100 µg/mL	> 100 µg/mL	100 µg/mL (≈ 41 µM)	25 µg/mL (≈ 10.2 µM)	> 100 µg/mL	> 100 µg/mL
